From patent publication US12077503B2, “Substituted cyclic amides and their use as herbicides” (FMC CORPORATION, priority 2015, dated 2024)

Legend:
Format in all cases: in vivo
Kochia (Kochia scoparia) [1] = experiment: Test A preemergence; settings: Bassia scoparia, pre-emergence, 240 h, preemergence, read-out: Plant response rating, Kochia; for pest or weed control at 125 g/ha: 125 g ai/ha, visual rating after approx. 10 d, 0 to 100 scale where 0 is no effect and 100 is complete control; for pest or weed control at 500 g/ha: 500 g ai/ha, 0 to 100 scale, 0 = no effect, 100 = complete control
Outline: (§1)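 In a loam soil and sand blend, planted seeds got a preemergence directed soil spray, and young plants at the one- to two-leaf stage, 2–10 cm high, got a postemergence application; ~10 d greenhouse hold; injury rated visually, 0 = none, 100 = complete control.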

[2] = tested on: barnyardgrass (Echinochloa crus-galli); experiment: Test A preemergence; settings: Echinochloa crus-galli, pre-emergence, 240 h, preemergence, read-out: Plant response rating, Barnyardgrass; for pest or weed control at 125 g/ha: 125 g ai/ha, visual rating after approx. 10 d, 0 to 100 scale where 0 is no effect and 100 is complete control; for pest or weed control at 500 g/ha: 500 g ai/ha, 0 to 100 scale, 0 = no effect, 100 = complete control
Outline: as §1

[3] = tested on: giant foxtail (Setaria faberii); experiment: Test A preemergence; settings: Setaria faberi, pre-emergence, 240 h, preemergence, read-out: Plant response rating, Foxtail, Giant; for pest or weed control at 125 g/ha: 125 g ai/ha, visual rating after approx. 10 d, 0 to 100 scale where 0 is no effect and 100 is complete control; for pest or weed control at 500 g/ha: 500 g ai/ha, 0 to 100 scale, 0 = no effect, 100 = complete control
Outline: as §1

[4] = tested on: pigweed (Amaranthus retroflexus); experiment: Test A preemergence; settings: Amaranthus retroflexus, pre-emergence, 240 h, preemergence, read-out: Plant response rating, Pigweed; for pest or weed control at 125 g/ha: 125 g ai/ha, visual rating after approx. 10 d, 0 to 100 scale where 0 is no effect and 100 is complete control; for pest or weed control at 500 g/ha: 500 g ai/ha, 0 to 100 scale, 0 = no effect, 100 = complete control
[5] = tested on: ragweed (common ragweed, Ambrosia elatior); experiment: Test A preemergence; settings: Ambrosia artemisiifolia, pre-emergence, 240 h, preemergence, read-out: Plant response rating, Ragweed; for pest or weed control at 125 g/ha: 125 g ai/ha, visual rating after approx. 10 d, 0 to 100 scale where 0 is no effect and 100 is complete control; for pest or weed control at 500 g/ha: 500 g ai/ha, 0 to 100 scale, 0 = no effect, 100 = complete control
Outline: as §1

[6] = tested on: ryegrass, Italian (Italian ryegrass, Lolium multiflorum); experiment: Test A preemergence; settings: Lolium multiflorum, pre-emergence, 240 h, preemergence, read-out: Plant response rating, Ryegrass, Italian; for pest or weed control at 125 g/ha: 125 g ai/ha, visual rating after approx. 10 d, 0 to 100 scale where 0 is no effect and 100 is complete control; for pest or weed control at 500 g/ha: 500 g ai/ha, 0 to 100 scale, 0 = no effect, 100 = complete control
Outline: as §1

Kochia (Kochia scoparia) [7] = experiment: Test A postemergence; settings: Bassia scoparia, post-emergence, 240 h, 125 g ai/ha, postemergence; visual injury after approximately 10 d; 0 to 100 scale (0 no effect, 100 complete control); read-out: Plant response rating, Kochia
Outline: as §1

[8] = tested on: blackgrass (Alopecurus myosuroides); experiment: Test A postemergence; settings: Alopecurus myosuroides, post-emergence, 240 h, 125 g ai/ha, postemergence; visual injury after approximately 10 d; 0 to 100 scale (0 no effect, 100 complete control); read-out: Plant response rating, Blackgrass
Outline: as §1

[9] = tested on: giant foxtail (Setaria faberii); experiment: Test A postemergence; settings: Setaria faberi, post-emergence, 240 h, 125 g ai/ha, postemergence; visual injury after approximately 10 d; 0 to 100 scale (0 no effect, 100 complete control); read-out: Plant response rating, Foxtail, Giant
Outline: as §1

[10] = tested on: ryegrass, Italian (Italian ryegrass, Lolium multiflorum); experiment: Test A postemergence; settings: Lolium multiflorum, post-emergence, 240 h, 125 g ai/ha, postemergence; visual injury after approximately 10 d; 0 to 100 scale (0 no effect, 100 complete control); read-out: Plant response rating, Ryegrass, Italian
Outline: as §1

[11] = tested on: barnyardgrass (Echinochloa crus-galli); experiment: Test B flooded paddy test; settings: Echinochloa crus-galli, Flood, 250 g ai/ha; scale of 0 to 100 where 0 is no effect and 100 is complete control; read-out: Barnyardgrass plant response rating
Outline: (§2)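 Plants at 2-leaf stage flooded to 3 cm above soil, with compounds applied directly to paddy water and that depth maintained. Plants kept in greenhouse 13–15 d. Visual rating versus controls on a 0 (no effect) to 100 (complete control) scale.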

[12] = tested on: ducksalad (Heteranthera limosa); experiment: Test B flooded paddy test; settings: Heteranthera limosa, Flood, 250 g ai/ha; scale of 0 to 100 where 0 is no effect and 100 is complete control; read-out: Ducksalad plant response rating
Outline: as §2

rice (Oryra sativa) = experiment: Test B flooded paddy test; settings: Oryza sativa, Flood, 250 g ai/ha; scale of 0 to 100 where 0 is no effect and 100 is complete control; read-out: Rice plant response rating
Outline: as §2

[13] = tested on: sedge, umbrella (small-flower umbrella sedge, Cyperus difformis); experiment: Test B flooded paddy test; settings: Cyperus difformis, Flood, 250 g ai/ha; scale of 0 to 100 where 0 is no effect and 100 is complete control; read-out: Sedge, Umbrella plant response rating
Outline: as §2

Row | SMILES | pest or weed control at 125 g/ha (Kochia (Kochia scoparia) [1]) | pest or weed control at 500 g/ha (Kochia (Kochia scoparia) [1]) | pest or weed control at 125 g/ha [2] | pest or weed control at 500 g/ha [2] | pest or weed control at 125 g/ha [3] | pest or weed control at 500 g/ha [3] | pest or weed control at 125 g/ha [4] | pest or weed control at 500 g/ha [4] | pest or weed control at 125 g/ha [5] | pest or weed control at 500 g/ha [5] | pest or weed control at 125 g/ha [6] | pest or weed control at 500 g/ha [6] | pest or weed control at 125 g/ha (Kochia (Kochia scoparia) [7]) | pest or weed control at 125 g/ha [8] | pest or weed control at 125 g/ha [9] | pest or weed control at 125 g/ha [10] | pest or weed control at 250 g/ha [11] | pest or weed control at 250 g/ha [12] | pest or weed control at 250 g/ha (rice (Oryra sativa)) | pest or weed control at 250 g/ha [13]
1 | O=C1NC[C@H](c2ccc(C3CC3)cc2)[C@H]1C(=O)Nc1ccccc1F [Compound 727] | 0% | 0% | 70% | 90% | 80% | 90% | 0% | 0% | 0% | 0% | 0% | 0% | 0% | 30% | 40% | 0% | 0% | 75% | 25% | 0%
2 | Cc1ccc([C@H]2CN(C)C(=O)[C@@H]2C(=O)Nc2cccc(F)c2F)c(F)c1 [Compound 730] | 70% | 80% | 90% | 100% | 90% | 100% | 30% | 50% | 50% | 60% | 20% | 70% | 70% | 50% | 90% | 40% | 75% | 95% | 0% | 0%
3 | Cc1ccc([C@H]2CN(C)C(=O)[C@@H]2C(=O)Nc2ccccc2S(C)(=O)=O)cc1C [Compound 734] | 20% | 90% | 90% | 100% | 90% | 100% | 20% | 80% | 20% | 50% | 40% | 90% | 0% | 20% | 90% | 20% | 60% | 100% | 0% | 0%
4 | CCc1cc(CC)cc([C@H]2CN(C)C(=O)[C@@H]2C(=O)Nc2ccccc2F)c1 [Compound 735] | 20% | 80% | 90% | 90% | 90% | 90% | 0% | 20% | 0% | 0% | 80% | 90% | 30% | 50% | 90% | 60% | 60% | 40% | 0% | 0%
5 | CCc1cc(CC)cc([C@H]2CN(C)C(=O)[C@@H]2C(=O)Nc2cccc(F)c2F)c1 [Compound 736] | 20% | 70% | 90% | 90% | 90% | 90% | 0% | 20% | 0% | 20% | 90% | 90% | 20% | 60% | 90% | 80% | 40% | 40% | 0% | 0%
6 | CN1C[C@H](c2ccc(F)c(OC(F)(F)C(F)F)c2)[C@@H](C(=O)Nc2ccccc2F)C1=O [Compound 740] | 80% | 90% | 90% | 90% | 100% | 100% | 70% | 80% | 40% | 50% | 60% | 80% | 40% | 30% | 90% | 50% | 60% | 100% | 50% | 0%
7 | CN1C[C@H](c2cccc(C(F)(F)F)c2)[C@@H](C(=O)Nc2ccccc2C2CC2)C1=O [Compound 749] | 0% | 20% | 0% | 20% | 50% | 90% | 0% | 0% | 0% | 0% | 0% | 20% | 0% | 0% | 0% | 0% | 0% | 20% | 0% | 0%
